Measurements: patent US20230399361A1, “MACROCYCLIC PEPTIDES” (UNIVERSITY OF NOTRE DAME DU LAC, priority 2022, published 2023)
“Also recorded” adds a separate entry of the source. *1 amine or outer side, *2 acyl side, *3 side chain or, on linkers, in order; H or OH if unused. Where a SMILES comes first, the peptide text is derived from it. Primed or numbered codes have the meaning given here. [ ]: non-standard residue; d: D form. The star is where a group is joined. aIle′ = Ile with backbone amide N-amino (hydrazide NNH2), CC[C@H](C)[C@@H](C(=O)[*:2])N(N)[*:1]; aVal = Val with backbone amide N-amino (hydrazide NNH2), CC(C)[C@@H](C(=O)[*:2])N(N)[*:1]; X2 = NN([C@@H](Cc1ccc(O)cc1)C(=O)[*:2])[*:1]; X1 = CC[C@H](C)[C@@H](C(=O)[*:2])N(N)[*:1]; N(NH2)LysNH2 = NCCCC[C@@H](C(N)=O)N(N)*; X3 = CC(C)[C@@H](C(=O)[*:2])N(N)[*:1]

How the values were obtained:
[1] = Self-aggregation of peptides alone by ThT fluorescence; format: physicochemical; details: incubated alone in aq. NaOAc buffer, 48 h
Source text: NAP Tau Mimics Inhibit Tau Fibrilization In Vitro. We chose thioflavin T (ThT), an amyloid specific fluorescent dye that binds to β-sheet assemblies, to first evaluate the effect of NAPs on recombinant tau aggregation. For these studies, we expressed and purified full-length tau featuring a P301L mutation frequently observed in patients with frontotemporal dementia and Parkinsonism linked to chromosome 17 (FTDP-17). This missense mutation leads to local structure destabilization around the amyloid-forming region resulting in faster aggregation. Recombinant tauP301L aggregated in the presence of equimolar heparin sulfate (t1/2=6.5±0.4 h) starting with a very short 0.5 h lag phase, followed by a 24 h exponential growth phase. […] Compounds 2 and 4 are mono- and diaminated hexapeptides derived from the R2 PHF6* aggregation-prone sequence, whereas compounds 5, 6, 12, and 13 are all derived from the R3 PHF6 sequence. Several other NAPs had no effect on endpoint ThT fluorescence or lacked consistent inhibition across repeated experiments. […] NaOAc buffer, as evidenced by intense ThT fluorescence after 48 h (FIG. 1B).
Design and synthesis of aggregation-resistant backbone-aminated derivatives of mxyl-AD. The data above support the hypothesis that mxyl-AD mimetic macrocycle can engage in native-like hydrophobic cross-b interactions as well as edge-to-edge H-bonds along the fibril axis. We next sought to employ mxyl-AD as a template for the design of tau seeding inhibitors that could potentially cap fibril growth and block propagation. This required us to incorporate a chemical modification onto mxyl-AD that would preclude its ability to self-assemble without disrupting its capacity to adopt the conformation required to bind tau. We therefore designed two backbone N-amino peptide (NAP) derivatives of our tau mimic, mxyl-NAP1 and mxyl-NAP2 (Scheme 1). Each of these analogues features a backbone amide substitution that precludes canonical b-sheet H-bonding along one edge of the macrocycle, while leaving the other edge intact to engage the tau protein. […] Both mxyl-NAP1 and mxyl-NAP2, which feature a single backbone N-amino group within the amyloidogenic PHF6 module, were prepared on solid support starting from Fmoc-protected N-amino dipeptides.

tauP301L fibrils = biological target: T1, tauP301L fibrils (Homo sapiens, UniProt P10636, P618L); assay: Cellular seeding assay with pre-formed tauP301L fibrils, HEK293 tau-RD(LM)-YFP biosensor cells; format: cell-based; details: for inhibition of propagation of pre-formed tauP301L fibrils: mature fibrils incubated with NAP 36 h before cells; for IC50: pre-formed 0.19 μM tauP301L fibrils treated 36 h with NAP, cells 48 h, three repeated experiments, read-out: fibril capping IC50 in cells; for inhibition of endogenous tau aggregation without co-incubation: without the 36 h inhibitor + mature fibril co-incubation period
T1 construct: we expressed and purified full-length tau featuring a P301L mutation; His6 (N); made in house; host or cells: E. coli BL21 (DE3)
T1 sequence (P10636 1-383 isoform P10636-6 P243L): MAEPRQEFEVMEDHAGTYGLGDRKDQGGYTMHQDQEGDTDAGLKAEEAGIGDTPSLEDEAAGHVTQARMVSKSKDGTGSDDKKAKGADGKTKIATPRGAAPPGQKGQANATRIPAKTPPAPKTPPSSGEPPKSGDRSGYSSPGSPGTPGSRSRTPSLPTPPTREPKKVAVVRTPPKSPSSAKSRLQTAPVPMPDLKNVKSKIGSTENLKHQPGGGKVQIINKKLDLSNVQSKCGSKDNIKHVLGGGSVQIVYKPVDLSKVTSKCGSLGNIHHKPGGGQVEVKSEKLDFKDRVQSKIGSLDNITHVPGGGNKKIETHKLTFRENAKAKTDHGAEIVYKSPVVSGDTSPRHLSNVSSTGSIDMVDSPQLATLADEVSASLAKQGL
Procedure: Given that pathogenic tau can be secreted from cells in various forms (as oligomers, aggregates, or mature fibrils), we tested whether NAPs could block the cellular transmission of pre-formed fibrils. In this experiment, NAPs were incubated with mature tauP301L fibrils for 36 h prior to treatment of cells expressing tau-RD(LM)-YFP. […] We determined a fibril capping IC50 in cells in the 5 μM range across three repeated experiments (FIG. 4).
We then considered the possibility of di-NAPs 12 and 13 entering cells and inhibiting seeding by interacting with endogenous tau-RD(LM)-YFP, rather than with extracellular pre-formed fibrils. We thus repeated the experiment without the 36 h inhibitor+mature fibril co-incubation period.
For seeding experiments with fibrillar tau, recombinant tauP301L fibrils were prepared as described above (see the section on fibril formation) and sonicated for 3 min prior to use in this assay. In a reaction volume of 40, 8 μL of fibrils was diluted with 31 μL of low-serum Opti-MEM medium and then mixed with 1 μL of NAPs (DMSO concentration was constant across various concentrations of inhibitors). The reaction mixture was then allowed to incubate at 37° C. for 36 h, then mixed with 2 μL of Lipofectamine 2000, and further incubated for 20 min at rt. A 10 μL aliquot of this mixture was then added to 90 μL of cells (15,000 cells/well). Cells were incubated for additional 48 h before taking measurements on a BioTek Cytation 5 cell imager and a microplate reader. 10×10 pictures/well were taken at 20× magnification under an FITC channel, and the punctate counting were carried out using built-in software. […] Every experiment included control wells (no tau, no heparin, and no NAP). All data plots were generated with SigmaPlot. IC50 values were calculated by fitting the data set using the sigmoidal logistic four-parameter equation. Error bars represent standard deviation from technical replicates.

tauP301L = biological target: T2, tauP301L (Homo sapiens, UniProt P10636, P618L); assay: Cellular seeding assay, monomeric tauP301L co-incubated with inhibitor, HEK293 tau-RD(LM)-YFP biosensor cells; format: cell-based; details: 0.19 μM monomeric tauP301L + heparin co-incubated 4 days, cells 48 h
T2 construct: we expressed and purified full-length tau featuring a P301L mutation; His6 (N); made in house; host or cells: E. coli BL21 (DE3)
T2 sequence (P10636 1-383 isoform P10636-6 P243L): as above
Source text: Di-N-aminated Hexapeptides Block the Cellular Transmission of Tau Fibrils. […] This mode of propagation is important for the spread of NFTs, neuropil threads, and plaque-associated neurites—all of which contribute to the progression of Alzheimer's disease. To test whether NAP inhibitors are able to block the seeding activity of recombinant tauP301L, we employed HEK293 biosensor cells that stably express a tau-yellow fluorescent protein fusion [tau-RD(LM)-YFP]. When we treated these cells with preformed heparin-induced fibrils of tauP301L, we observed a large number of intracellular tau aggregates, as indicated by punctate fluorescence after 48 h.
Mxyl-NAPs inhibit the seeding capacity of full-length tau in a biosensor cell assay. The ability to halt the prion-like spread of tau fibrils from diseased to healthy cells using designed molecules remains a considerable challenge. […] To test whether mxyl-NAPs could block this seeding activity, we treated HEK293 biosensor cells that express a tau yellow fluorescent protein fusion (tau-RD[LM]-YFP) with tauP301L incubated in the presence or absence of inhibitors. Heparin-induced fibrils of tauP301L grown in the absence of mxyl-NAPs led to strong intracellular FRET signal resulting from endogenous tau-RD(LM)-YFP aggregation. Quantitative brightness threshold-based analysis of puncta within the biosensor cells provided a positive baseline for seed-competent recombinant tau fibrils.
Cellular Seeding Assay. The tauP301L was diluted to a final concentration of […] in an aggregation buffer containing 100 mM sodium acetate, 10 μM heparin, and 2 mM DTT, pH: 7.4. The protein was incubated in a microcentrifuge tube for 4 days at 37° C. with a shaking speed of 100 rpm. Control vials included those wherein (1) buffer was added in place of tauP301L and (2) buffer was added in place of heparin.
For each experiment, cells were plated at a density of 15,000 cells/well in 96-well tissue culture plates.
For seeding by monomeric tau, freshly purified recombinant tauP301L was co-incubated with heparin and NAPs for 4 days in an aggregation buffer at 37° C. (see the above section). Following incubation, the reaction mixture was diluted in the low-serum Opti-MEM medium, mixed with Lipofectamine 2000 in a 20:1 ratio (complex/Lipofectamine) and allowed to incubate for an additional 20 min at rt. A mixture of 0.19 μM tau+1.9 μM or 0.009 μM inhibitors (final concentrations) was added to the cells. Cells were incubated for an additional 48 h before taking measurements on a BioTek Cytation 5 cell imager and a microplate reader. 10×10 pictures/well were taken at 20× magnification under an FITC channel, and the punctate counting was carried out using built-in software. […] Every experiment included control wells (no tau, no heparin, and no NAP). All data plots were generated with SigmaPlot. Error bars shown are standard deviation from technical replicates.

Row | Compound | self-aggregation, ThT fluorescence of peptide alone [1] | inhibition of propagation of pre-formed tauP301L fibrils (tauP301L fibrils) | IC50 (tauP301L fibrils) | inhibition of endogenous tau aggregation without co-incubation (tauP301L fibrils) | seeding capacity of tauP301L (intracellular puncta) (tauP301L; 0.009 μM inhibitor) | seeding capacity of tauP301L (intracellular puncta) (tauP301L; 1.9 μM inhibitor)
1 | CC[C@H](C)[C@H](NC(=O)[C@H](CCC(N)=O)NC(=O)[C@@H](NC(C)=O)C(C)C)C(=O)N(N)[C@H](C(=O)N[C@@H](Cc1ccc(O)cc1)C(=O)N(N)[C@@H](CCCCN)C(N)=O)C(C)C [Compound 13, Ac-Val-Gln-Ile-aVal-Tyr-aLys-NH2] (Ac-VQI[X3]Y-{N(NH2)LysNH2}) | no such fluorescence | effectively inhibit propagation in a dose-dependent manner | ~5 µM | failed to inhibit endogenous tau aggregation | less pronounced | significantly reduced seeding capacity; also recorded: sufficient to prevent seeding
2 | Ac-aVal-Gln-aIle-Ile-Asn-Lys-NH2 (Ac-[aVal]Q[aIle′]INK-NH2; SMILES CC[C@H](C)[C@H](NC(=O)[C@H]([C@@H](C)CC)N(N)C(=O)[C@H](CCC(N)=O)NC(=O)[C@H](C(C)C)N(N)C(C)=O)C(=O)N[C@@H](CC(N)=O)C(=O)N[C@@H](CCCCN)C(N)=O) [Compound 4] | no such fluorescence | generally ineffective |  |  | far weaker anti-seeding activity | far weaker anti-seeding activity; also recorded: ineffective
3 | CC[C@H](C)[C@@H](C(=O)N[C@H](C(=O)N(N)[C@@H](Cc1ccc(O)cc1)C(=O)N[C@@H](CCCCN)C(N)=O)C(C)C)N(N)C(=O)[C@H](CCC(N)=O)NC(=O)[C@@H](NC(C)=O)C(C)C [Compound 12, Ac-Val-Gln-aIle-Val-aTyr-Lys-NH2] (Ac-VQ[X1]V[X2]K-NH2) | no such fluorescence | effectively inhibit propagation in a dose-dependent manner | ~5 µM | failed to inhibit endogenous tau aggregation | less pronounced | significantly reduced seeding capacity; also recorded: sufficient to prevent seeding
